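Dose response: 5 concentrations. Exposure: 48 h. Format: 96-well plates. Endpoint: linear interpolation; highest concentration if not reached. Abbreviation: GI50, concentration required for 50% inhibition of growth. Definition used: TGI = concentration required for complete inhibition of growth.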
Columns and labels:
Test in all cases: NCI anticancer screen, dose series, 48 h; in the data active means GI50 below about 0.43 µM; inactive means the rest
[1] = system: NCI/ADR-RES ovarian
[2] = system: IGROV1 ovarian
[3] = system: SK-MEL-28 melanoma
[4] = system: SF-268 CNS
[5] = system: MALME-3M melanoma
[6] = system: SF-295 CNS
[7] = system: T-47D breast
[8] = system: SK-MEL-2 melanoma
[9] = system: SNB-75 CNS
[10] = system: U251 CNS
[11] = system: SK-MEL-5 melanoma
[12] = system: ACHN renal
[13] = system: HCC-2998 colon
[14] = system: M14 melanoma
[15] = system: NCI-H460 lung
[16] = system: UACC-62 melanoma
[17] = system: A498 renal
[18] = system: LOX IMVI melanoma
[19] = system: MDA-MB-435
[20] = system: TK-10 renal
[21] = system: NCI-H23 lung
[22] = system: UACC-257 melanoma
[23] = system: PC-3 prostate
[24] = system: NCI-H226 lung
[25] = system: SW-620 colon
[26] = system: A549 NSCLC
[27] = system: OVCAR-4 ovarian
[28] = system: UO-31 renal
[29] = system: KM12 colon
[30] = system: CAKI-1 renal
[31] = system: CCRF-CEM leukemia
[32] = system: OVCAR-5 ovarian
[33] = system: MOLT-4 leukemia
[34] = system: HOP-92 NSCLC
[35] = system: OVCAR-8 ovarian
[36] = system: EKVX NSCLC
[37] = system: DU-145 prostate
[38] = system: SR leukemia
[39] = system: HS 578T breast
[40] = system: MDA-MB-231 breast
[41] = system: RPMI-8226 leukemia
[42] = system: NCI-H522 lung
[43] = system: HCT-15 colon
[44] = system: SF-539 CNS
[45] = system: SNB-19 CNS
[46] = system: HL-60(TB) leukemia
[47] = system: HT29 colon
[48] = system: BT-549 breast
[49] = system: MCF7 breast
[50] = system: SK-OV-3 ovarian
[51] = system: HOP-62 NSCLC
[52] = system: 786-0 renal
[53] = system: COLO 205 colon
[54] = system: SN12C renal
[55] = system: RXF 393 renal
[56] = system: OVCAR-3 ovarian
[57] = system: HCT-116 colon
[58] = system: K-562 leukemia

Nc1ccc(S(=O)(=O)c2ccc(N)cc2)cc1
> 100 µM: TGI [1] | TGI [2] | TGI [3] | TGI [4] | TGI [5] | TGI [6] | TGI [7] | TGI [8] | TGI [9] | TGI [10] | TGI [11] | TGI [12] | TGI [13] | TGI [14] | TGI [15] | TGI [16] | TGI [17] | TGI [18] | TGI [19] | TGI [20] | TGI [21] | TGI [22] | TGI [23] | TGI [24] | TGI [25] | TGI [26] | TGI [27] | TGI [28] | TGI [29] | TGI [30] | TGI [31] | TGI [32] | TGI [33] | TGI [34] | TGI [35] | TGI [36] | TGI [37] | TGI [38] | TGI [39] | TGI [40] | TGI [41] | TGI [42] | TGI [43] | TGI [44] | TGI [45] | TGI [46] | TGI [47] | TGI [48] | TGI [49] | TGI [50] | TGI [51] | TGI [52] | TGI [53] | TGI [54] | TGI [55] | TGI [56] | TGI [57] | TGI [58]
inactive: GI50 [1] > 100 µM | GI50 [2] > 100 µM | GI50 [3] > 100 µM | GI50 [4] > 100 µM | GI50 [5] > 100 µM | GI50 [6] > 100 µM | GI50 [7] > 100 µM | GI50 [8] > 100 µM | GI50 [9] > 100 µM | GI50 [10] > 100 µM | GI50 [11] > 100 µM | GI50 [12] > 100 µM | GI50 [13] > 100 µM | GI50 [14] > 100 µM | GI50 [15] > 100 µM | GI50 [16] > 100 µM | GI50 [17] 64.8 µM | GI50 [18] > 100 µM | GI50 [19] > 100 µM | GI50 [20] > 100 µM | GI50 [21] > 100 µM | GI50 [22] > 100 µM | GI50 [23] > 100 µM | GI50 [24] > 100 µM | GI50 [25] > 100 µM | GI50 [26] > 100 µM | GI50 [27] > 100 µM | GI50 [28] > 100 µM | GI50 [29] > 100 µM | GI50 [30] > 100 µM | GI50 [31] > 100 µM | GI50 [32] > 100 µM | GI50 [33] > 100 µM | GI50 [34] > 100 µM | GI50 [35] > 100 µM | GI50 [36] > 100 µM | GI50 [37] > 100 µM | GI50 [38] > 100 µM | GI50 [39] 68.4 µM | GI50 [40] > 100 µM | GI50 [41] > 100 µM | GI50 [42] > 100 µM | GI50 [43] > 100 µM | GI50 [44] > 100 µM | GI50 [45] > 100 µM | GI50 [46] > 100 µM | GI50 [47] > 100 µM | GI50 [48] > 100 µM | GI50 [49] > 100 µM | GI50 [50] > 100 µM | GI50 [51] > 100 µM | GI50 [52] > 100 µM | GI50 [53] > 100 µM | GI50 [54] > 100 µM | GI50 [55] > 100 µM | GI50 [56] > 100 µM | GI50 [57] > 100 µM | GI50 [58] > 100 µM
